# Source: patent US20130136722A1, “Methods of Ex Vivo Expansion of Blood Progenitor Cells, and Generation of Composite Grafts” (The Board of Trustees of The University of Illinois, priority 2011, published 2013)
# Values joined by “and” are separate entries in the source; they are usually repeats but may differ in a detail not shown here. Identical values can stand only once.
# How the values were obtained:
# Type in all cases: cell-based, human
# [1] = test system: cord blood-derived CD34+CD90+ cells; assay: Ex vivo expansion culture of cord blood CD34+ cells with chromatin modifying agents, flow cytometry for CD34/CD90
# From the text: Freshly collected human CB was obtained from the New York Blood Center (New York, N.Y.) according to Institutional Review Board guidelines. Low density CB cells (<1.077 g/ml) were obtained by density centrifugation on Ficoll-Paque PLUS (GE Healthcare Bio-Sciences AB, Uppsala, Sweden), from which CD34^+ cells were immunomagnetically isolated by the MACS CD34 progenitor isolation kit (Miltenyi Biotech, Inc., Auburn, Calif.) as described in Araki et al., 2009, Exp Hematol. 37: 1084-1095). The purity of isolated CD34^+ cells routinely ranged from 90-99%.
# CD34^+ cell expansion culture with or without CMA was carried out as described (Araki et al., 2009, Id.; Araki et al. 2006, Exp Hematol. 34: 140-149; Araki et al, 2007, Blood 109: 3570-3578.). All other HDAC inhibitors including 1 mM VPA (Sigma), TSA (5 ng/mL), NA (5 mM) or 5 μM of Suberoylanilide hydroxamic acid (SAHA; BioVision, Inc. Mountain View, Calif.) was added twice at 0 hr and after changing media at 48 hrs of culture. HDAC inhibitors were added only once (48 hr) when used in combination with a DNMT inhibitor as described (Araki et al., 2009, Id.; Araki et al., 2006, Id.; Himburg et al., 2010, Nat. Med. 16: 475-482).
# Flow cytometric analysis was carried out as described (Araki et al., 2009, Id.; Araki et al. 2006, Id.; Araki et al, 2007, Id.). All antibodies were purchased from BD Bioscience (San Jose, Calif.). All analyses were paired with the corresponding matched isotype control and at least 10,000 live cells were acquired for each analysis (CellQuest software, Becton Dickinson).
# In order to compare the effects of various chromatin modifying agents (CMAs) on the degree of expansion of cord blood-derived, primitive subpopulation of CD34^+ cells, valproic acid (VPA), trichostatin A (TSA), nicotinic acid (NA), suberoylanilide hydroxamic acid (SAHA) or 5-aza-2′-deoxycytidine (5azaD) as single agents or in combination was tested in vitro. The results of fluorescence-activated cell sorting experiments performed on cord blood-derived CD34^+/CD90^+ cells treated with CMA agents is shown in FIG. 1A.
# [2] = test system: colony-forming cells (CFC); assay: Colony-forming cell (CFC) assay of CMA expanded CB cells; details: for CFC PE (%) (Colony Forming Cell Plating Efficiency): mean ± SEM of three independent experiments
# Method: Colony-forming cell (CFC) were assayed by plating 5×10^2 cells per dish in semisolid media and were counted after 14 days as described (Araki et al., 2009, Id.). The number of cobble stone area-forming cell (CAFC) was quantitated in primary and expanded CD34+ cells by plating in limiting dilution onto irradiated M2-10B4 stromal cells as described (Araki et al., 2009, Id.; Conneally et al., 1997, Proc. Natl. Acad. Sci. USA. 94: 9836-9841; Taswell, 1981, J. Immunol. 126: 1614-1619).
# In order to determine the a correlation between expansion of CD34^+CD90^+ cells and their functional potential as pluripotent hematopoietic stem cells, in vitro functional assays were performed, including assessment of colony-forming cells (CFC), a short-term assay, and cobblestone-area forming cells (CAFC), a long-term assay.
# LINE-1 = assay: Global DNA methylation (LINE-1) by pyrosequencing; details: CD34+ cells at day 3 of culture; FIG. 6A
# Method: DNA methylation analysis was performed by EpigenDx (Worcester, Mass.) using quantitative pyrosequencing and the PSQ-HS96 system according to standard procedures (Warren et al., 2010, Cell Stem Cell. 7: 618-630). Primers were developed for the CpG sites near the promoter area as detailed in Table 3. Briefly, genomic DNA was isolated from primary or CMA expanded enriched CD34^+ cells using the Blood and Cell Culture DNA kit (Qiagen, Valencia Calif.). Genomic DNA was bisulfite treated by an EZ Methylation Kit (Zymo Research, Irvine, Calif.), and biotinylated gene specific primers or long interspersed nucleotide element 1 (LINE-1) primers were used to amplify regions of interest for analysis as described (Bhatia et al., 1997, J Exp Med. 186: 619-624).
# Global methylation of genomic DNA was quantified by assaying long interspersed nucleotide element 1 (LINE 1) methylation as a surrogate marker (Yang et al., 2004, Nucleic Acids Res. 32: e38). The degree of global methylation of CD34^+ cells prior to and following ex vivo culture in the presence or absence of CMAs (5azaD/TSA and VPA) was determined in these experiments. […] CD34^+ cells cultured in 5azaD/TSA and VPA had 55.4%±2.2% and 77.2%±2.0% methylation respectively at day 3 (FIG. 6A).
# [3] = test system: histone H4 acetylation of gene promoter sites; assay: Chromatin immunoprecipitation (ChIP) assay with anti-acetyl-Histone H4 antibody; details: FIG. 6B
# Method: The ChIP assay was carried out using a commercial Assay kit using the manufacturer's protocol (Millipore; Billerica, Mass.) as described (Sankar et al., 2008, Oncogene 27: 5717-5728). Briefly, after 72 hours of culture CD34^+ cells were crosslinked with formaldehyde and the cell pellet was lysed and sonicated to produce genomic fragments and immunoprecipitated using anti-acetyl-Histone H4 antibody (Millipore). Amplified PCR fragments were then analyzed on a 1.2% agarose gel.
# In order to examine whether the alteration of gene expression observed in CD34^+ cells during ex vivo expansion culture with CMA was due to changes in histone acetylation, acetylation of histone H4 was analyzed for several gene promoter sites including HoxB4, Bmi1, GATA2, PU.1, as well as GAPDH as a control. Standard chromatin immunoprecipitation (ChIP) assays were used employing an antibody specific to acetylated histone H4 as described previously (Sankar et al., 2008, Oncogene 27:5717-28). […] More promoter fragments for Bmi1, HoxB4, and GATA2, and less fragments for PU.1 were amplified in 5azaD/TSA expanded CD34^+ cells as compared to control and VPA-expanded CD34^+ cells (FIG. 6B).
structure (smiles),measurement,setting,value
"CCCC(CCC)C(=O)O [VPA, valproic acid]",cells co-expressing CD34+ and CD90+,"[1]; 9 days of culture, cytokines (SCF, Flt3-ligand, TPO, IL-3) plus CMA, FIG. 1A",42.2%
same,fold expansion of CD34+CD90+ cells,"[1]; 9 days of culture, cytokines plus CMA, FIG. 1B",64.6±3.7 fold and 65 fold
same,CD34+CD90+ (%),[1]; mean ± SEM of three independent experiments,42.17 ± 13.45 %
same,fold expansion of primitive CFU-mix colonies,"[2]; cytokines plus CMA, FIG. 2A",13.3±4.7 fold
same,CFC PE (%) (Colony Forming Cell Plating Efficiency),[2],15.27%
same,CFC PE (%) (Colony Forming Cell Plating Efficiency),[2]; listed as VPA Alone,15.27 ± 3.66 %
same,mean LINE 1 methylation (four CpG sites),LINE-1,77.2%
same,"histone H4 acetylation of the promoter regions of HoxB4, Bmi1 and GATA2 genes in contrast to control cultures",[3]; CD34+ cells after 72 hours of culture,Increased histone H4 acetylation
same,levels of histone H4 acetylation for Bmi1 and HoxB4 genes compared to control cultures,[3],intermediate levels
